# PubChem BioAssay (NCI)
#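 Five concentrations, 48 hours, 96-well plates. The concentration for full growth arrest is given as TGI.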
# What was measured:
# Assay in all cases: NCI tumour cell line growth inhibition, 48 h
# [1] = test system: OVCAR-3 ovarian
# [2] = test system: DMS 273 small cell lung
# [3] = test system: SK-MEL-28 melanoma
# [4] = test system: M19-MEL melanoma
# [5] = test system: DU-145 prostate
# [6] = test system: NCI-H460 lung
# [7] = test system: SNB-75 CNS
# [8] = test system: P388 leukemia
# [9] = test system: SN12C renal
# [10] = test system: KM12 colon
# [11] = test system: U251 CNS
# [12] = test system: SNB-19 CNS
# [13] = test system: HOP-62 NSCLC
# [14] = test system: HT29 colon
# [15] = test system: MDA-MB-435
# [16] = test system: SF-539 CNS
# [17] = test system: SF-295 CNS
# [18] = test system: CAKI-1 renal
# [19] = test system: PC-3 prostate
# [20] = test system: DMS 114 small cell lung
# [21] = test system: A549 NSCLC
# [22] = test system: HCT-116 colon
# [23] = test system: SK-OV-3 ovarian
# [24] = test system: P388/ADR leukemia
# [25] = test system: K-562 leukemia
# [26] = test system: SR leukemia
# [27] = test system: KM20L2 colon
# [28] = test system: MALME-3M melanoma
# [29] = test system: ACHN renal
# [30] = test system: SK-MEL-5 melanoma
# [31] = test system: OVCAR-5 ovarian
# [32] = test system: UO-31 renal
# [33] = test system: CCRF-CEM leukemia
# [34] = test system: BT-549 breast
# [35] = test system: TK-10 renal
# [36] = test system: IGROV1 ovarian
# [37] = test system: OVCAR-8 ovarian
# [38] = test system: SN12K1 renal
# [39] = test system: NCI-H23 lung
# [40] = test system: HCC-2998 colon
# [41] = test system: HOP-92 NSCLC
# [42] = test system: SW-620 colon
# [43] = test system: HL-60(TB) leukemia
# [44] = test system: COLO 205 colon
# [45] = test system: RPMI-8226 leukemia
# [46] = test system: T-47D breast
# [47] = test system: MOLT-4 leukemia
# [48] = test system: EKVX NSCLC
# [49] = test system: OVCAR-4 ovarian
# [50] = test system: MCF7 breast
# [51] = test system: NCI-H522 lung
# [52] = test system: 786-0 renal
# [53] = test system: HOP-18 NSCLC
# [54] = test system: M14 melanoma
# [55] = test system: LOX IMVI melanoma
# [56] = test system: NCI/ADR-RES ovarian
# [57] = test system: UACC-62 melanoma
# [58] = test system: DLD-1 colon
# [59] = test system: SK-MEL-2 melanoma
# [60] = test system: NCI-H226 lung
# [61] = test system: MDA-MB-231 breast
# [62] = test system: SNB-78 CNS
# [63] = test system: RXF 393 renal
# [64] = test system: A498 renal
# [65] = test system: HCT-15 colon
# [66] = test system: SF-268 CNS
# [67] = test system: UACC-257 melanoma
# [68] = test system: HS 578T breast
# [69] = test system: LXFL 529 NSCLC
# [70] = test system: XF 498 CNS
# [71] = test system: RXF-631 renal
structure (smiles),measurement,setting,value
CC(O)CCC(=O)c1ccoc1 (stereo unspecified),TGI,[1],9.96 mM
same,TGI,[2],> 9.14 mM
same,TGI,[3],> 8.38 mM
same,TGI,[4],> 10 mM
same,TGI,[5],> 10 mM
same,TGI,[6],> 10 mM
same,TGI,[7],9.65 mM
same,TGI,[8],> 10 mM
same,TGI,[9],9.93 mM
same,TGI,[10],> 8.11 mM
same,TGI,[11],> 10 mM
same,TGI,[12],> 10 mM
same,TGI,[13],> 10 mM
same,TGI,[14],> 10 mM
same,TGI,[15],> 10 mM
same,TGI,[16],> 10 mM
same,TGI,[17],> 10 mM
same,TGI,[18],3.93 mM
same,TGI,[19],> 10 mM
same,TGI,[20],> 9.67 mM
same,TGI,[21],> 7.45 mM
same,TGI,[22],> 8.75 mM
same,TGI,[23],> 7.94 mM
same,TGI,[24],> 10 mM
same,TGI,[25],> 10 mM
same,TGI,[26],> 10 mM
same,TGI,[27],> 10 mM
same,TGI,[28],> 8.38 mM
same,TGI,[29],> 10 mM
same,TGI,[30],8.03 mM
same,TGI,[31],> 10 mM
same,TGI,[32],9.12 mM
same,TGI,[33],> 9.36 mM
same,TGI,[34],> 10 mM
same,TGI,[35],> 10 mM
same,TGI,[36],> 10 mM
same,TGI,[37],> 10 mM
same,TGI,[38],> 10 mM
same,TGI,[39],> 10 mM
same,TGI,[40],> 10 mM
same,TGI,[41],8 mM
same,TGI,[42],> 10 mM
same,TGI,[43],7.89 mM
same,TGI,[44],> 8.25 mM
same,TGI,[45],7.9 mM
same,TGI,[46],> 10 mM
same,TGI,[47],> 9.43 mM
same,TGI,[48],> 9.74 mM
same,TGI,[49],> 7.94 mM
same,TGI,[50],> 10 mM
same,TGI,[51],8.27 mM
same,TGI,[52],> 10 mM
same,TGI,[53],> 10 mM
same,TGI,[54],> 10 mM
same,TGI,[55],> 10 mM
same,TGI,[56],> 9.75 mM
same,TGI,[57],> 10 mM
same,TGI,[58],> 10 mM
same,TGI,[59],> 8.11 mM
same,TGI,[60],> 10 mM
same,TGI,[61],> 10 mM
same,TGI,[62],9.99 mM
same,TGI,[63],> 8.31 mM
same,TGI,[64],9.94 mM
same,TGI,[65],> 10 mM
same,TGI,[66],> 10 mM
same,TGI,[67],> 10 mM
same,TGI,[68],> 10 mM
NNC(=S)N/N=C(\CC1OC(=O)c2ccccc21)c1ccccc1O (stereo unspecified),TGI,[1],> 0.1 mM
same,TGI,[2],> 0.1 mM
same,TGI,[3],> 0.1 mM
same,TGI,[4],> 0.1 mM
same,TGI,[6],> 0.1 mM
same,TGI,[7],0.0861 mM
same,TGI,[9],> 0.1 mM
same,TGI,[10],> 0.1 mM
same,TGI,[11],0.0562 mM
same,TGI,[12],> 0.1 mM
same,TGI,[13],> 0.1 mM
same,TGI,[69],> 0.1 mM
same,TGI,[14],> 0.1 mM
same,TGI,[16],0.0437 mM
same,TGI,[17],0.0404 mM
same,TGI,[18],> 0.1 mM
same,TGI,[20],> 0.1 mM
same,TGI,[21],> 0.1 mM
same,TGI,[22],> 0.1 mM
same,TGI,[23],> 0.1 mM
same,TGI,[25],> 0.1 mM
same,TGI,[26],0.0464 mM
same,TGI,[27],> 0.1 mM
same,TGI,[70],> 0.1 mM
same,TGI,[28],> 0.1 mM
same,TGI,[29],> 0.1 mM
same,TGI,[30],> 0.1 mM
same,TGI,[31],0.0339 mM
same,TGI,[32],> 0.1 mM
same,TGI,[33],> 0.1 mM
same,TGI,[35],> 0.1 mM
same,TGI,[36],> 0.1 mM
same,TGI,[71],> 0.1 mM
same,TGI,[37],> 0.1 mM
same,TGI,[39],> 0.1 mM
same,TGI,[40],> 0.1 mM
same,TGI,[41],> 0.1 mM
same,TGI,[42],> 0.1 mM
same,TGI,[43],> 0.1 mM
same,TGI,[44],> 0.1 mM
same,TGI,[47],0.0756 mM
same,TGI,[48],> 0.1 mM
same,TGI,[49],> 0.1 mM
same,TGI,[51],0.0838 mM
same,TGI,[52],> 0.1 mM
same,TGI,[53],> 0.1 mM
same,TGI,[54],> 0.1 mM
same,TGI,[55],0.0326 mM
same,TGI,[57],> 0.1 mM
same,TGI,[58],> 0.1 mM
same,TGI,[59],> 0.1 mM
same,TGI,[60],0.0954 mM
same,TGI,[62],> 0.1 mM
same,TGI,[63],0.0773 mM
same,TGI,[64],0.0954 mM
same,TGI,[65],> 0.1 mM
same,TGI,[66],> 0.1 mM
same,TGI,[67],> 0.1 mM
